Measurements reported in PubChem BioAssay (NCI).
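The concentration for 50% growth inhibition is given as GI50. TGI denotes the concentration required for complete inhibition of growth.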

What was measured:
Experiment in all cases: DTP human tumour cell line panel, 384-well format
HL-60(TB) leukemia = test system: HL-60(TB) leukemia
SK-OV-3 ovarian = test system: SK-OV-3 ovarian
T-47D breast = test system: T-47D breast
NCI/ADR-RES ovarian = test system: NCI/ADR-RES ovarian
NCI-H460 NSCLC = test system: NCI-H460 NSCLC
BT-549 breast = test system: BT-549 breast
ACHN renal = test system: ACHN renal
SW-620 colon = test system: SW-620 colon
A498 renal = test system: A498 renal
MDA-MB-231 breast = test system: MDA-MB-231 breast
HT29 colon = test system: HT29 colon
SF-268 CNS = test system: SF-268 CNS
MOLT-4 leukemia = test system: MOLT-4 leukemia
OVCAR-4 ovarian = test system: OVCAR-4 ovarian
NCI-H322M lung = test system: NCI-H322M lung
SNB-75 CNS = test system: SNB-75 CNS
HOP-62 NSCLC = test system: HOP-62 NSCLC
HCT-15 colon = test system: HCT-15 colon
COLO 205 colon = test system: COLO 205 colon
OVCAR-5 ovarian = test system: OVCAR-5 ovarian
NCI-H522 lung = test system: NCI-H522 lung
SF-539 CNS = test system: SF-539 CNS
NCI-H226 lung = test system: NCI-H226 lung
K-562 leukemia = test system: K-562 leukemia
RPMI-8226 leukemia = test system: RPMI-8226 leukemia
DU-145 prostate = test system: DU-145 prostate
MALME-3M melanoma = test system: MALME-3M melanoma
U251 glioblastoma = test system: U251 glioblastoma
MDA-MB-435 melanoma = test system: MDA-MB-435 melanoma
HS 578T breast = test system: HS 578T breast

Structure (SMILES): Cc1cc(Nc2nc(N[C@@H](C)c3ncc(F)cn3)ncc2Cl)n[nH]1
- GI50 (HL-60(TB) leukemia): 16 µM
- TGI (HL-60(TB) leukemia): 31 µM
- GI50 (SK-OV-3 ovarian): 18.6 µM
- TGI (SK-OV-3 ovarian): 78.1 µM
- GI50 (T-47D breast): 29.8 µM
- TGI (T-47D breast): > 100 µM
- GI50 (NCI/ADR-RES ovarian): 20.2 µM
- TGI (NCI/ADR-RES ovarian): 60.4 µM
- GI50 (NCI-H460 NSCLC): 21.5 µM
- TGI (NCI-H460 NSCLC): > 100 µM
- GI50 (BT-549 breast): 20.7 µM
- TGI (BT-549 breast): 78.1 µM
- GI50 (ACHN renal): 31.2 µM
- TGI (ACHN renal): > 100 µM
- GI50 (SW-620 colon): 24.3 µM
- TGI (SW-620 colon): 91.3 µM
- GI50 (A498 renal): 35.8 µM
- TGI (A498 renal): > 100 µM
- GI50 (MDA-MB-231 breast): 27.5 µM
- TGI (MDA-MB-231 breast): > 100 µM
- GI50 (HT29 colon): 27.4 µM
- TGI (HT29 colon): > 100 µM
- GI50 (SF-268 CNS): 18.4 µM
- TGI (SF-268 CNS): 63.4 µM
- GI50 (MOLT-4 leukemia): 16.7 µM
- TGI (MOLT-4 leukemia): 33.8 µM
- GI50 (OVCAR-4 ovarian): 77.8 µM
- TGI (OVCAR-4 ovarian): > 100 µM
- GI50 (NCI-H322M lung): 42.6 µM
- TGI (NCI-H322M lung): > 100 µM
- GI50 (SNB-75 CNS): 8.7 µM
- TGI (SNB-75 CNS): 27.9 µM
- GI50 (HOP-62 NSCLC): 39.1 µM
- TGI (HOP-62 NSCLC): > 100 µM
- GI50 (HCT-15 colon): 26.4 µM
- TGI (HCT-15 colon): > 100 µM
- GI50 (COLO 205 colon): 41 µM
- TGI (COLO 205 colon): > 100 µM
- GI50 (OVCAR-5 ovarian): 45.1 µM
- TGI (OVCAR-5 ovarian): > 100 µM
- GI50 (NCI-H522 lung): 4.66 µM
- TGI (NCI-H522 lung): 28.5 µM
- GI50 (SF-539 CNS): 14 µM
- TGI (SF-539 CNS): 34.1 µM
- GI50 (NCI-H226 lung): 12 µM
- TGI (NCI-H226 lung): > 100 µM
- GI50 (K-562 leukemia): 27.9 µM
- TGI (K-562 leukemia): > 100 µM
- GI50 (RPMI-8226 leukemia): 18.4 µM
- TGI (RPMI-8226 leukemia): 73 µM
- GI50 (DU-145 prostate): 37.1 µM
- TGI (DU-145 prostate): > 100 µM
- GI50 (MALME-3M melanoma): 52.8 µM
- TGI (MALME-3M melanoma): > 100 µM
- GI50 (U251 glioblastoma): 32.1 µM
- TGI (U251 glioblastoma): > 100 µM
- GI50 (MDA-MB-435 melanoma): 17.1 µM
- TGI (MDA-MB-435 melanoma): > 100 µM
- GI50 (HS 578T breast): 11.6 µM
